Measured values as given in patent US20090227669A1, “Compositions and Methods for Perioperative Bladder Instillation” (THE UNIVERSITY OF TOLEDO, priority 2004, published 2009).

Experiments:
[1] = system: AY-27 rat transitional cancer cell line; assay: AY-27 cell survival/growth under EGCG treatment; format: cell-based
AY-27 cells [2] = assay: DNA ladder assay in AY-27 cells; format: cell-based, rat
AY-27 cells [3] = assay: Intravesical EGCG instillation after AY-27 tumor cell implantation in cauterized rat bladder; format: in vivo, Fisher 344 rats
Procedure: Single Polyphenol (EGCG): Fisher 344 rats were maintained under guidelines of the Medical College of Ohio Institutional Animal Care and Use Committee. A combination ketamine (80 mg/kg)/xylazine (12 mg/kg) intraperitoneal injection was used to anesthetize the rats prior to surgery. The abdomen was shaved and prepped with an iodine solution under sterile conditions. Oxytetracycline 20 mg was injected subcutaneously for antibacterial prophylaxis. Under 4× microscopic magnification, a 1.5 cm midline incision exposed the bladder. A sterile, 22 gauge Angiocath cannula was then advanced transurethrally. A blunt-tipped 24 gauge copper wire was then advanced through the catheter and a […] current was used to cauterize the bladder wall creating a small, white puckered area. The skin and muscular layers of the abdominal wall were closed with a running 4-0 silk suture.
AY-27 cells suspended in 0.25 cc of serum free RPMI-1640 medium were instilled transurethrally into 40 rats. The catheters were then capped and the tumor cells were allowed to dwell inside the bladder for 30 minutes. After tumor cell instillation, twelve rats (Group I) had two, separately hourly instillations of culture medium. Twenty-eight rats (Group II) were treated with a freshly prepared solution of 0.25 cc, 200 microM EGCG solution in RPLMI-1640 medium for 2 separate dwell times of one hour. […]

[4] = orally administered; along with at least five metabolites; cited from earlier work

SMILES: O=C(O[C@@H]1Cc2c(O)cc(O)cc2O[C@@H]1c1cc(O)c(O)c(O)c1)c1cc(O)c(O)c(O)c1 [EGCG, epigallocatechin-gallate]
- cellular growth of AY-27 cell line [1]: inhibits cellular growth
- cellular survival ([1]; after two hours of treatment at all concentrations of EGCG): No cellular survival
- banding pattern on DNA ladder assay (apoptosis) (AY-27 cells [2]): weak banding pattern
- tumor growth rate (AY-27 cells [3]; 200 microM EGCG, 0.25 cc, 2 separate dwell times of one hour, euthanized three weeks later, n=28, controls 100%): 36%
- incidence of bladder tumor implantation (AY-27 cells [3]; intravesical EGCG at 200 microM for 2 hours): significantly reduce
- fraction of total administered EGCG found in urine [4]: 0.03-0.59%
